According to patent US7678913B2, “Ureas as factor Xa inhibitors” (Portola Pharmaceuticals, Inc., priority 2004, dated 2010):

Biological target: T1, human plasma protein factor Xa (Homo sapiens, UniProt P00742)
T1 construct: measure proteolytic activity of the enzyme (factor Xa); purchased Haematologic Technologies (Essex Junction, Vt.); host or cells: human plasma
Test: Factor Xa IC50 determination (cleavage of chromogenic substrate S-2765)
Format: biochemical
Conditions: fXa 1 nM, S-2765 100 μM, Tris buffered saline pH 7.4, room temperature
Outline: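 Human plasma factor Xa (1 nM) preincubated 5 min at room temperature with inhibitor (0.01 nM–10 μM final) in Tris-buffered saline pH 7.4 with CaCl2, BSA and 5% DMSO. S-2765 added at 100 μM; pNA release at 405 nm over 2 min; initial velocities fitted to four-parameter equation for IC50, duplicates.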

T1 sequence (P00742 235-488 limits assumed): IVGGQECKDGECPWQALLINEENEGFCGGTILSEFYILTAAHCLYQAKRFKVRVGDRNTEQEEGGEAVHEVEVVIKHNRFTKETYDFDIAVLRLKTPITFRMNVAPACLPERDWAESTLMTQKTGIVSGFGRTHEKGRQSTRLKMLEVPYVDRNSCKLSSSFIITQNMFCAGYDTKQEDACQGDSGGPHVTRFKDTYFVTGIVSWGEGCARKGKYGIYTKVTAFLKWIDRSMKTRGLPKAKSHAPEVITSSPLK
T1 sequence (P00742 41-179 partner limits assumed): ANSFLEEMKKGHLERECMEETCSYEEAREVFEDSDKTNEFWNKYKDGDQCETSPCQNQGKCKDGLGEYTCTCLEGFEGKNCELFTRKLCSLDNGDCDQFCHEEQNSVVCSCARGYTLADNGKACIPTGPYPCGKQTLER

| IC50 | Structure (SMILES) |
| --- | --- |
| ≤ 100 nM | O=C(Nc1ccc(Cl)cc1)NC(C(=O)Nc1ccc(-c2cccc[n+]2[O-])cc1)c1ccccc1OC(F)(F)F (centres unmarked) [Example 121, N-[4-(N-oxo-pyridin-2-yl)phenyl]-2-(2-trifluoromethoxyphenyl)-2-(4-chlorophenylaminocarbonylamino)-acetamide] |
| ≤ 100 nM | CN1CCN=C1c1ccc(NC(=O)C(NC(=O)Nc2ccc(Cl)cc2)c2ccccc2SC(F)(F)F)cc1 (centres unmarked) [Example 122, N-[4-(1-methyl-4,5-dihydro-1H-imidazol-2-yl)phenyl]-2-(2-trifluoromethylthiophenyl)-2-(4-chlorophenylaminocarbonylamino)-acetamide] |
| ≤ 100 nM | O=C(Nc1ccc(Cl)cc1)NC(C(=O)Nc1ccc(-c2cccc[n+]2[O-])cc1)c1ccccc1SC(F)(F)F (centres unmarked) [Example 123, N-[4-(N-oxo-pyridin-2-yl)phenyl]-2-(2-trifluoromethylthiophenyl)-2-(4-chlorophenylaminocarbonylamino)-acetamide] |
| ≤ 100 nM | CN1CCN=C1c1ccc(NC(=O)C(NC(=O)Nc2ccc(Cl)cc2)c2ccccc2Oc2ccccc2)cc1 (centres unmarked) [Example 124, N-[4-(1-methyl-4,5-dihydro-1H-imidazol-2-yl)phenyl]-2-(2-phenoxyphenyl)-2-(4-chlorophenylaminocarbonylamino)-acetamide] |
| ≤ 100 nM | O=C(Nc1ccc(Cl)cc1)NC(C(=O)Nc1ccc(-c2cccc[n+]2[O-])cc1)c1ccccc1Oc1ccccc1 (centres unmarked) [Example 125, N-[4-(N-oxo-pyridin-2-yl)phenyl]-2-(2-phenoxyphenyl)-2-(4-chlorophenylaminocarbonylamino)-acetamide] |
| ≤ 100 nM | CSc1ccccc1C(NC(=O)Nc1ccc(Cl)cc1)C(=O)Nc1ccc(-c2cccc[n+]2[O-])cc1 (centres unmarked) [Example 126, N-[4-(N-oxo-pyridin-2-yl)phenyl]-2-(2-methylthiophenyl)-2-(4-chlorophenylaminocarbonylamino)-acetamide] |
| ≤ 100 nM | CN1CCC(N2CCN(C(=O)C(NC(=O)Nc3ccc(Cl)cc3)c3ccccc3F)CC2)CC1 (centres unmarked) [Example 127] |
| ≤ 100 nM | CN1CCC(N2CCN(C(=O)C(NC(=O)Nc3ccc(Cl)cc3)c3ccccc3)CC2)CC1 (centres unmarked) [Example 128] |
| ≤ 100 nM | C#CCC(NC(=O)Nc1ccc(Cl)cc1)C(=O)Nc1ccc(C2=NCCN2C)cc1 (centres unmarked) [Example 129, N-[4-(1-methyl-4,5-dihydro-1H-imidazol-2-yl)phenyl]-2-propargyl-2-(4-chlorophenylaminocarbonylamino)-acetamide] |
| ≤ 100 nM | CC#CCC(NC(=O)Nc1ccc(Cl)cc1)C(=O)Nc1ccc(C2=NCCN2C)cc1 (centres unmarked) [Example 130, N-[4-(1-methyl-4,5-dihydro-1H-imidazol-2-yl)phenyl]-2-(but-2-yn-1-yl)-2-(4-chlorophenylaminocarbonylamino)-acetamide] |
| ≤ 100 nM | CC#CCC(NC(=O)Nc1ccc(Cl)cc1)C(=O)Nc1ccc(-c2cccc[n+]2[O-])cc1 (centres unmarked) [Example 131, N-[4-(N-oxo-pyridin-2-yl)phenyl]-2-(but-2-yn-1-yl)-2-(4-chlorophenylaminocarbonylamino)-acetamide] |
| ≤ 100 nM | C=CCC(NC(=O)Nc1ccc(Cl)cc1)C(=O)Nc1ccc(C2=NCCN2C)cc1 (centres unmarked) [Example 132, N-[4-(1-methyl-4,5-dihydro-1H-imidazol-2-yl)phenyl]-2-allyl-2-(4-chlorophenylaminocarbonylamino)-acetamide] |
| ≤ 100 nM | C=CCC(NC(=O)Nc1ccc(Cl)cc1)C(=O)Nc1ccc(-c2cccc[n+]2[O-])cc1 (centres unmarked) [Example 133, N-[4-(N-oxo-pyridin-2-yl)phenyl]-2-allyl-2-(4-chlorophenylaminocarbonylamino)-acetamide] |
| 100 to 500 nM | CN(C)C(=N)c1ccc(N2C(=O)C(NC(=O)Nc3ccc(Cl)cc3)Cc3ccccc32)cc1 (centres unmarked) [Example 134, 1-[4-(dimethylaminoimino)phenyl]-3-(4-chlorophenylaminocarbonylamino)-3,4-dihydroquinolin-2-one] |
| ≥ 500 nM | N=C(c1ccc(N2C(=O)C(NC(=O)Nc3ccc(Cl)cc3)Cc3ccccc32)cc1)N1CCCC1 (centres unmarked) [Example 135] |
| ≤ 100 nM | CN1CCN=C1c1ccc(N2C(=O)C(NC(=O)Nc3ccc(Cl)cc3)Cc3ccccc32)cc1 (centres unmarked) [Example 136, 1-[4-(1-methyl-4,5-dihyrdo-1H-imidazol-2-yl)phenyl]-3-(4-chlorophenylaminocarbonylamino)-3,4-dihydroquinolin-2-one] |
| ≤ 100 nM | O=C(Nc1ccc(Cl)cc1)N[C@H](C(=O)Nc1ccc(-n2ccccc2=O)cc1)c1ccccc1 [Example 137, (2S) N-[4-(2-pyridon-1-yl)phenyl]-2-phenyl-2-(4-chlorophenylaminocarbonylamino)-acetamide] |
| ≤ 100 nM | O=C(Nc1ccc(Cl)cc1)N[C@@H](C(=O)Nc1ccc(-n2ccccc2=O)cc1)c1ccccc1 [Example 138, (2R) N-[4-(2-pyridon-1-yl)phenyl]-2-phenyl-2-(4-chlorophenylaminocarbonylamino)-acetamide] |

| IC50 | Structure (SMILES) |
| --- | --- |
| ≤ 100 nM | O=C(Nc1ccc(Cl)s1)N[C@H](C(=O)Nc1ccc(-n2ccccc2=O)cc1)c1ccccc1 [Example 139, (2S) N-[4-(2-pyridon-1-yl)phenyl]-2-phenyl-2-(2-chlorothiophen-5-ylaminocarbonylamino)-acetamide] |
| ≤ 100 nM | O=C(Nc1ccc(Cl)cc1)N[C@@H](C(=O)Nc1ccc(-n2ccccc2=O)cc1F)c1ccccc1 [Example 140, (2R) N-[4-(2-pyridon-1-yl)-2-fluorophenyl]-2-phenyl-2-(4-chlorophenylaminocarbonylamino)-acetamide] |
| ≤ 100 nM | O=C(Nc1ccc(Cl)cc1)N[C@@H](C(=O)N1CCC(N2CCCCC2=O)CC1)c1ccccc1 [Example 141, (2R) 4-(2-piperidinon-1-yl)piperidin-1-yl-2-phenyl-2-(4-chlorophenylaminocarbonylamino)-acetamide] |
| ≤ 100 nM | O=C(Nc1ccc(Cl)cc1)N[C@@H](C(=O)N1CCC(N2CCOCC2=O)CC1)c1ccccc1 [Example 142, (2R) 4-(3-morpholinon-4-yl)piperidin-1-yl-2-phenyl-2-(4-chlorophenylaminocarbonylamino)-acetamide] |
| ≤ 100 nM | O=C(Nc1ccc(Cl)cc1)N[C@@H](C(=O)N1CCC(n2ccccc2=O)CC1)c1ccccc1 [Example 143, (2R) 4-(2-pyridon-1-yl)piperidin-1-yl-2-phenyl-2-(4-chlorophenylaminocarbonylamino)-acetamide] |
| ≤ 100 nM | O=C(Nc1ccc(Cl)cc1)NC(C(=O)N1CCC(N2CCOCC2=O)CC1)c1ccccc1F (centres unmarked) [Example 144, 4-(3-morpholinon-4-yl)piperidin-1-yl-2-(2-fluorophenyl)-2-(4-chlorophenylaminocarbonylamino)-acetamide] |
| ≤ 100 nM | O=C(Nc1ccc(Cl)cc1)NC(C(=O)N1CCC(N2CCOCC2=O)CC1)c1ccccc1Cl (centres unmarked) [Example 145, 4-(3-morpholinon-4-yl)piperidin-1-yl-2-(2-chlorophenyl)-2-(4-chlorophenylaminocarbonylamino)-acetamide] |
| 100 to 500 nM | O=C(Nc1ccc(Cl)cc1)NC(C(=O)N1CCC(N2CCOCC2=O)CC1)c1ccccc1Br (centres unmarked) [Example 146, 4-(3-morpholinon-4-yl)piperidin-1-yl-2-(2-bromophenyl)-2-(4-chlorophenylaminocarbonylamino)-acetamide] |
| 100 to 500 nM | Cc1ccccc1C(NC(=O)Nc1ccc(Cl)cc1)C(=O)N1CCC(N2CCOCC2=O)CC1 (centres unmarked) [Example 147, 4-(3-morpholinon-4-yl)piperidin-1-yl-2-(2-methylphenyl)-2-(4-chlorophenylaminocarbonylamino)-acetamide] |
| ≤ 100 nM | COc1ccccc1C(NC(=O)Nc1ccc(Cl)cc1)C(=O)N1CCC(N2CCOCC2=O)CC1 (centres unmarked) [Example 148, 4-(3-morpholinon-4-yl)piperidin-1-yl-2-(2-methoxyphenyl)-2-(4-chlorophenylaminocarbonylamino)-acetamide] |
| ≤ 100 nM | O=C(Nc1ccc(Cl)cc1)NC(C(=O)N1CCC(N2CCCCC2=O)CC1)c1ccccc1F (centres unmarked) [Example 149, 4-(2-piperidinon-1-yl)piperidin-1-yl-2-(2-fluorophenyl)-2-(4-chlorophenylaminocarbonylamino)-acetamide] |
| ≤ 100 nM | COc1ccccc1C(NC(=O)Nc1ccc(Cl)cc1)C(=O)N1CCC(N2CCCCC2=O)CC1 (centres unmarked) [Example 150, 4-(2-piperidinon-1-yl)piperidin-1-yl-2-(2-methoxyphenyl)-2-(4-chlorophenylaminocarbonylamino)-acetamide] |
| ≥ 500 nM | COc1ccccc1C(NC(=O)Nc1ccc(Cl)cc1)C(=O)N1CCC(N2CCN(C)CC2=O)CC1 (centres unmarked) [Example 151, 4-(4-methyl-2-piperazinon-1-yl)piperidin-1-yl-2-(2-methoxyphenyl)-2-(4-chlorophenylaminocarbonylamino)-acetamide] |
| ≤ 100 nM | COc1ccccc1C(NC(=O)Nc1ccc(Cl)cc1)C(=O)N1CCN(C2CCCNCC2)CC1 (centres unmarked) [Example 152, 4-(homopiperidin-4-yl)piperazin-1-yl-2-(2-methoxyphenyl)-2-(4-chlorophenylaminocarbonylamino)-acetamide] |
| ≤ 100 nM | COc1ccccc1C(NC(=O)Nc1ccc(Cl)cc1)C(=O)N1CCN(C2CCCN(C)CC2)CC1 (centres unmarked) [Example 153, 4-(1-methylhomopiperidin-4-yl)piperazin-1-yl-2-(2-methoxyphenyl)-2-(4-chlorophenylaminocarbonylamino)-acetamide] |
| 100 to 500 nM | CN1CCCN(C2CCN(C(=O)[C@H](NC(=O)Nc3ccc(Cl)cc3)c3ccccc3)CC2)CC1 [Example 154, (2R) 4-(4-methylhomopiperazin-1-yl)piperidin-1-yl-2-phenyl-2-(4-chlorophenylaminocarbonylamino)-acetamide] |
| ≤ 100 nM | CN1CCC(C2CCN(C(=O)[C@H](NC(=O)Nc3ccc(Cl)cc3)c3ccccc3)CC2)CC1 [Example 155, (2R) 4-(1-methylpiperidin-4-yl)piperidin-1-yl-2-phenyl-2-(4-chlorophenylaminocarbonylamino)-acetamide] |
